Assay results: BindingDB's records for doi:10.7270/Q2DZ06QW (Columbia University Molecular Screening Center, 2008)

target: T1, Bifunctional epoxide hydrolase 2 (Homo sapiens, UniProt P34913); assay: sEH inhibitor concentration-response potency, dose response, biochemical, human sEH, fluorescence, Infinite200 (AID 1026)
T1 sequence (P34913 whole entry): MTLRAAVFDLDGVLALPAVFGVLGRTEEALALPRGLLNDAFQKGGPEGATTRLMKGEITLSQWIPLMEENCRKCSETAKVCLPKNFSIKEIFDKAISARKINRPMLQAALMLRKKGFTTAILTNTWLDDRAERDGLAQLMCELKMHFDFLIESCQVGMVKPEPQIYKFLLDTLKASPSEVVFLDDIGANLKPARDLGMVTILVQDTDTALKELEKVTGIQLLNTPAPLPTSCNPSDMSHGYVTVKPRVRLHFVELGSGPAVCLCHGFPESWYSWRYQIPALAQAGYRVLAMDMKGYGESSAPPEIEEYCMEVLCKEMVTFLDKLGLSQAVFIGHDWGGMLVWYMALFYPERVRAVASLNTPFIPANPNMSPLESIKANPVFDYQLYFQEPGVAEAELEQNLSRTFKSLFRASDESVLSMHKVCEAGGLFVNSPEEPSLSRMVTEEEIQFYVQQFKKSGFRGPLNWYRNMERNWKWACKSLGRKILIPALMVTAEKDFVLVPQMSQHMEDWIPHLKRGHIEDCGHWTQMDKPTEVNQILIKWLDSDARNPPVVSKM

| Compound | IC50 |
| --- | --- |
| Cc1cc(Cl)c(OCCCNCc2ccccc2)c(Br)c1 [3-(2-bromanyl-6-chloranyl-4-methyl-phenoxy)-N-(phenylmethyl)propan-1-amine;ethanedioic acid] | > 10000 nM |
| COC(=O)c1ccc(S(=O)(=O)N2C3CCC2CC(NC(=O)NC2CCCCC2)C3)cc1 (stereo not drawn) [4-[3-(3-Cyclohexyl-ureido)-8-aza-bicyclo[3.2.1]octane-8-sulfonyl]-benzoic acid methyl ester] | 8.9 nM |
| CCOC(=O)c1sc(NC(=O)Nc2ccc(Cl)cc2)cc1C [5-[(4-chlorophenyl)carbamoylamino]-3-methyl-thiophene-2-carboxylic acid ethyl ester] | 63.1 nM |
| Cc1ccc(NC(=O)NC2CCCCC2)cc1Cl [1-(3-chloranyl-4-methyl-phenyl)-3-cyclohexyl-urea] | 70.5 nM |
| O=C1Nc2ccc(S(=O)(=O)N3CCOCC3)c3cccc1c23 [6-(4-morpholinylsulfonyl)-1H-benzo[cd]indol-2-one] | > 10000 nM |
| c1ccc(CCN=C2NCCCS2)cc1 [5,6-dihydro-4H-1,3-thiazin-2-yl(phenethyl)amine] | > 10000 nM |
| CC(C)CN(C#N)c1nc(N2CCOCC2)nc(N2CCOCC2)n1 [(4,6-dimorpholin-4-yl-1,3,5-triazin-2-yl)-(2-methylpropyl)cyanamide] | > 10000 nM |
| CCOC(=O)c1sc(NC(=O)c2ccc(Cl)s2)cc1C [5-[(5-chlorothiophene-2-carbonyl)amino]-3-methyl-thiophene-2-carboxylic acid ethyl ester] | 82.8 nM |
| CCOC(=O)C(O)(c1ccc(NC(=O)NC2CCCCC2)cc1)C(F)(F)F (stereo not drawn) [2-[4-(cyclohexylcarbamoylamino)phenyl]-3,3,3-trifluoro-2-hydroxy-propionic acid ethyl ester] | 121 nM |
| COc1ccc(S(=O)(=O)N2C3CCC2CC(NC(=O)NC2CCCCC2)C3)cc1 (stereo not drawn) [1-Cyclohexyl-3-[8-(4-methoxy-benzenesulfonyl)-8-aza-bicyclo[3.2.1]oct-3-yl]-urea] | 39.4 nM |
| O=C(CCCOc1ccc(Cl)cc1Cl)NN=CC1CCCCC1 | 24.4 nM |
| Cc1ccccc1NC(=S)NCCC(c1ccccc1)c1ccccc1 [1-(3,3-diphenylpropyl)-3-(2-methylphenyl)thiourea] | > 10000 nM |
| CC(C)(C)c1ccc(S(=O)(=O)N2CCC(c3nc4cc(Cl)ccc4[nH]3)CC2)cc1 [2-[1-(4-tert-butylphenyl)sulfonylpiperidin-4-yl]-6-chloranyl-1H-benzimidazole] | > 10000 nM |
| Clc1ccc(CON=CNc2ncnc3sccc23)cc1 [N-[(4-chlorophenyl)methoxy]-N'-thieno[2,3-d]pyrimidin-4-yl-methanimidamide] | > 10000 nM |
| CCOC(=O)CSc1ccc(-c2nc3cc(C)c(C)cc3[nH]2)cn1 [SMR000122535] | > 10000 nM |
| COc1ccc(Cn2ccc(=O)c(Cc3c(Cl)cccc3Cl)c2C)cc1 [3-(2,6-dichlorobenzyl)-1-(4-methoxybenzyl)-2-methyl-4(1H)-pyridinone] | > 10000 nM |
| Cc1cc(NS(=O)(=O)c2ccc(Nc3nc(-c4sc(NC(=O)c5ccccc5)nc4C)cs3)cc2)no1 [MLS000523248] | 19.8 nM |
| CCN(CC)S(=O)(=O)c1ccc(N=C2NS(=O)(=O)c3ccccc32)cc1 [4-(1,1-Dioxo-1H-1lambda*6*-benzo[d]isothiazol-3-ylamino)-N,N-diethyl-benzenesulfonamide] | > 10000 nM |
